assay: Human HepG2 cell viability assay in 384 well format; type: toxicity, cell-based; design: dose 125 nL, time 70.5 hour; cytotoxicity at 70.5 h: concentration not given beside the values; conditions: HepG2 cells, read-out: Inhibition

| Structure (SMILES) | cytotoxicity at 70.5 h |
| --- | --- |
| Cc1nc(NC2CCCC2)cc(C2CCN2C(=O)c2cnn(C)c2)n1 (configuration not stated) | -3.93% |
| Cc1ncsc1CCCn1ccnc1-c1cc2n(n1)CCCNC2 | -9.03% |
| CCN(CC(=O)Nc1c(C)n[nH]c1C)CC(O)c1ccc(C)cc1 (configuration not stated) | 13.8% |
| Cc1ccoc1C(=O)N1CC(C(=O)NCC2CC2)C2(CCOCC2)C1 (configuration not stated) | 1.52% |
| CC/N=c1\nc(NCC)nc2n1C(O)(Nc1cc(C)ccc1C)CS2 (configuration not stated) | -10.1% |
| O=C(CNC(=O)c1ccoc1)NCCOc1ccc2c(c1)CCC2 | -6.52% |
| CCc1nc(C)c(C(=O)NCCN2CCN(C(C)=O)CC2)s1 | -7.15% |
| CC(C)CC1COCCN1C(=O)Cc1cccs1 (configuration not stated) | -4.92% |
| COc1c(C2CCCN2C(=O)c2cc(Cl)c[nH]2)c(C)nn1C (configuration not stated) | -0.121% |
| COCCNc1ncc(-c2cccc(OC)c2)c(-c2nccn2C)n1 | -7.42% |
| Cc1cccc(N(CCC(N)=O)CC(=O)Nc2ccccc2)c1 | 0.933% |
| CN(Cc1cc[nH]n1)C(=O)C1CC(=O)N(Cc2ccncc2)C1 (configuration not stated) | -0.62% |
| Cc1nc(NC(=O)CN2CCc3c(nc(C(C)C)n3C)C2)sc1C | -7.61% |
| COc1c(C2CCCN2CC(=O)Nc2cc(C)nn2C)c(C)nn1C (configuration not stated) | -3.3% |
| COc1ccc(-n2ccc(C(=O)N3CCC(C(N)=O)C3)n2)cc1 (configuration not stated) | 23.5% |
| Cc1cc(CC(C)Nc2ncc(C)c(N(C)C)n2)[nH]n1 (configuration not stated) | -1.49% |
| CS(=O)(=O)Nc1ccc(CNC(=O)CN2CCc3ccccc32)cc1 | 7.44% |
| Cc1cc(C(=O)N(C)C2CCS(=O)(=O)C2)c2ccc(F)cc2n1 (configuration not stated) | 10.8% |
| Cc1nc(CN2CCO[C@@H]3CN(Cc4ccccn4)CC[C@@H]3C2)cs1 | -6.11% |

| Structure (SMILES) | cytotoxicity at 70.5 h |
| --- | --- |
| CC1CCCCN1CCNC(=O)NCc1ccc(C#N)cc1F (configuration not stated) | -6.05% |
| Cc1cccc(-c2noc(CN3CCc4nn(C)c(=O)cc4C3)n2)c1 | 8.08% |
| Cc1cnn(CC2CCCN2Cc2coc(-c3cccs3)n2)c1 (configuration not stated) | -0.977% |
| O=C(c1ccc(Cl)o1)N1CCCC(c2cc(C(F)(F)F)[nH]n2)C1 (configuration not stated) | -3.16% |
| O=C(Nc1cccnc1)c1ccc(-n2cncn2)nn1 | 13.8% |
| O=C(c1ccccn1)N1CCC(c2nc(O)cc(-c3ccncc3)n2)C1 (configuration not stated) | -5.15% |
| Cc1ccccc1CNC(=O)CN1CCN(Cc2nccn2C)CC1 | -20.5% |
| Cc1cnn(C2CN(CC(O)c3ccc4c(c3)OCCO4)C2)c1 (configuration not stated) | -3.93% |
| CCc1ncnc(N2CCOCC2C(N)=O)c1F (configuration not stated) | -5.74% |
| CC(=O)N1CCC2(CC1)C(=O)N(CC1CCN(C)CC1)c1ccccc12 | -8.7% |
| O=C(NCCO)Nc1c(F)cc(F)cc1-c1ccccc1 | -10.7% |
| CC(C)Nc1ncnc2c1CCN(C(=O)Cc1cccs1)CC2 | -7.55% |
| CCOC(C)c1nc(CNc2cccc(Cl)c2OC)cs1 (configuration not stated) | 8.97% |
| COc1ccc(CN2CCc3nc4ccsc4c(=O)n3CC2)c(C)c1C | 39.8% |
| COCCOC1CCN(C(C(=O)O)c2ccc3c(c2)OCO3)CC1 (configuration not stated) | -6.06% |
| COc1ccc2c(C)c(C(=O)N3CCC(NC(C)=O)C3)oc2c1 (configuration not stated) | -3.36% |
| O=S(=O)(c1cc2ccccc2o1)N1CCCC1 | 4.69% |
| CC(C)(O)CN1CCN(C(=O)C2CSc3ccccc3O2)CC1 (configuration not stated) | -14.7% |
| COCC(=O)N1CCN(c2ccc(C(=O)OC)cc2)CC1C (configuration not stated) | 20.1% |

| Structure (SMILES) | cytotoxicity at 70.5 h |
| --- | --- |
| CCOCC(=O)NC1(c2nc(C)cs2)CCCC1 | -2.89% |
| CC(C)CNC(=O)c1c(-n2cnnn2)sc2c1CCC2 | -13.7% |
| CC(Cn1ccnc1)NC(=O)N(C)Cc1ccco1 (configuration not stated) | -2.84% |
| OC(COCc1ccccc1Cl)CN1CCC(c2ccn[nH]2)CC1 (configuration not stated) | 1.38% |
| O=C(CN1CCCCCC1)N1CCc2nnc(C3CCCNC3)n2CC1 (configuration not stated) | 16% |
| N#CCCN(c1ccc(F)cc1)S(=O)(=O)CC1CCCCO1 (configuration not stated) | -1.6% |
| O=C(NCc1cccnc1)NCC(O)c1cccc(C(F)(F)F)c1 (configuration not stated) | -9.97% |
| CCc1nc(NS(=O)(=O)c2ccc(F)cc2Cl)no1 | -8.4% |
| CN(Cc1cc(C(C)(C)C)n[nH]1)C(=O)c1c[nH]nc1-c1cccc(F)c1 | -8% |
| CCN(CC)S(=O)(=O)NCC1Cc2ccccc2O1 (configuration not stated) | -3.76% |
| CCc1nc(CN2CCN(C(=O)Cc3c(C)noc3C)CC2)cs1 | -10.4% |
| Cc1nc(C)n(C2CCCN(C(=O)c3ccc(F)c(F)c3)C2)n1 (configuration not stated) | -2.21% |
| CC(=O)Nc1nc(C(=O)N2CCCCC2Cn2cccn2)cs1 (configuration not stated) | -0.594% |
| O=C(NCCCN1CCCC1=O)c1nc(-c2ccc3cc[nH]c3c2)no1 | -22.5% |
| Cc1nc(C)c(CC(=O)Nc2nc(C)c(C)s2)c(=O)[nH]1 | -17.1% |
| CN(C)C(=O)[C@@H]1CCO[C@@H]2CCN(c3ncccn3)C[C@H]21 | -15.3% |
| NC(=O)C1(c2cnccn2)CCCN1Cc1ccc(F)c(F)c1 (configuration not stated) | 7.58% |
| COc1ccc2nc(C3CC3)cc(C(=O)NCc3ncnn3C)c2c1 | 0.319% |
| Cc1noc(C)c1CN1CCc2c(CNc3nccs3)n[nH]c2C1 | -12.5% |
